Where “and” joins values, the source holds several entries; their conditions need not be identical. Equal entries are not always repeated. Entries after “also recorded” stand apart in the source; their conditions may differ.
What was measured:
Aβ 1-40 [1] = target: T1, Aβ 1-40 (Homo sapiens, UniProt P05067); test: Sedimentation velocity of Aβ quaternary structures in the presence of inhibitors; assay type: biochemical; design: Amyloid-β (Aβ 1-40) was purchased from California Peptides (Lot # SF104); purchased California Peptides Lot # SF104; conditions: for Average sedimentation coefficients of two populations of oligomeric species: apomorphine 50 μM
T1 sequence (P05067 672-711): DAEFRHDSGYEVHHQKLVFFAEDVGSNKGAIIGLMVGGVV
Protocol: Probing the Mechanism of Amyloid Fibril Formation Inhibition using Sedimentation Velocity Experiments. To probe the mechanism by which apomorphine and its structural analogues inhibit Aβ fibril formation, sedimentation velocity was used to determine the distribution and molecular size of quaternary structures of Aβ in the presence and absence of inhibitors. Aβ samples (100 μM) in a pH 7.4 buffer (50 mM Tris-HCl, 150 mM NaCl) were incubated at 37° C. for 1-10 days in the presence and absence of inhibitors, then transferred to 25° C. for 1-3 hours before the sedimentation experiments were carried out at 20° C. The sedimentation properties of Aβ 1-40 in the absence and presence of inhibitors were obtained from data collected on a temperature controlled Beckman XL-1 using 400-420 μL of peptide solutions and data were recorded at rotor speeds of 3,000-30,000 rpm in continuous mode with a step size of 0.005 cm. The sedimentation velocity absorbance profiles were then analyzed using the time derivative (dc/dt) analysis program, which was provided by J. Philo, to obtain the sedimentation coefficient distribution g(*s) for all the quaternary structures in solution as described previously (37, 38).
Fitting of the g(*s) profiles allows for the determination of the sedimentation coefficient (peak position, with a unit of Svedberg, 1 S=10^−13 s) and the diffusion coefficient (from the peak width, with a unit of Fick, 1 F=[…]). This method has the advantage of allowing for the calculation of the molecular weight of the sedimenting species using equation II since s and D can be obtained from the fitting analysis. [formula]
In the cases where the diffusion coefficient cannot be determined accurately, the molecular weight of a spherical protein can still be estimated by combining the Svedberg equation and Stokes equation for the frictional coefficient to obtain equation III which utilizes the estimated sedimentation coefficient: [formula]
Sedimentation velocity was also used to determine the amount of soluble Aβ and Aβ monomer in solution after sedimentation of Aβ aggregates. […] The percent of monomeric species in solution was calculated using equation IV at 50,000 rpm and after complete sedimentation of Aβ high MW oligomeric species. Sedimentation equilibrium studies of the unsedimented species were carried out to determine whether a monomer, dimer or a mixture was present in solution. % of unsedimented Aβ=1−(Absorbance(290 nm, 3000 rpm)−Absorbance(290 nm, 20,000-30,000 rpm))×100 (IV)

monomeric Aβ = target: T2, monomeric Aβ (Homo sapiens, UniProt P05067); test: Sedimentation equilibrium of unsedimented monomeric species, monitored at 330 nm; assay type: binding
T2 construct: Amyloid-β (Aβ 1-40) was purchased from California Peptides (Lot # SF104); purchased California Peptides Lot # SF104
T2 sequence (P05067 672-711): as above

Aβ 1-40 [2] = target: T1, Aβ 1-40; test: Visible sedimentable aggregates in Aβ 1-40 fibrillization samples; design: Amyloid-β (Aβ 1-40) was purchased from California Peptides (Lot # SF104); purchased California Peptides Lot # SF104; conditions: Aβ 1-40 100 μM, apomorphine 100 μM, 37° C., 1-3 days
Aβ 1-40 [3] = target: T1, Aβ 1-40; test: Electron microscopy of Aβ aggregates in the presence of inhibitor; assay type: biochemical; design: Amyloid-β (Aβ 1-40) was purchased from California Peptides (Lot # SF104); purchased California Peptides Lot # SF104
Protocol: Electron Microscopy. Electron microscopy was used to follow the changes in size and structural morphology of Aβ aggregates in the presence and absence of inhibitor at 37° C. as a function of time. EM samples were prepared by placing 5 μL of the Aβ solution on a carbon-coated grid and allowing the solution to stand for 2 min before removing excess solution. The grid was then washed once with distilled water and once with 1% uranyl acetate before staining the sample with fresh 1% uranyl acetate for another 2 min. The samples were then studied in a Phillips CM-100 electron microscope. The grids were thoroughly examined to get an overall statistical evaluation of the structures present in the sample. All electron micrographs were taken at 100 kV.

Aβ 1-40 [4] = target: T1, Aβ 1-40; test: Congo red binding studies; assay type: biochemical; design: Amyloid-β (Aβ 1-40) was purchased from California Peptides (Lot # SF104); purchased California Peptides Lot # SF104; conditions: Aβ solutions containing apomorphine, 3 days at 37° C.
Aβ 1-40 [5] = target: T1, Aβ 1-40; test: Thioflavin T (ThT) fluorescence assay for fibril formation; assay type: biochemical; design: Amyloid-β (Aβ 1-40) was purchased from California Peptides (Lot # SF104); purchased California Peptides Lot # SF104
Protocol: Preparation of Stock Peptide Solutions for Fibrillization Studies. Stock solutions of the inhibitors were prepared by dissolving the compounds at a concentration of 5-7 mM in water or in 1-1.5% DMSO solutions (for compounds with reduced solubility). Amyloid-β (Aβ 1-40) was purchased from California Peptides (Lot # SF104). Aβ 1-40 stock solutions were prepared by dissolving purified and lyophilized peptide in cold double distilled water to yield stock solutions at a concentration of 2 mg/mL. The stock solutions were used within 10-30 minutes of dissolution. Samples for fibril formation assay were prepared by diluting the appropriate amount of Aβ stock with pH 7.4 Tris-HCl buffer (50 mM Tris, 150 mM NaCl) to afford a final peptide concentration of 100 μM. […] Analytical ultracentrifugation, and electron microscopy were periodically used to ensure that we start our experiments with a hydrodynamically defined Aβ monomer, and the absence of any preformed fibrils in solution.
Thioflavin T (ThT) Fluorescence Assay for Fibril Formation. Thioflavin T was purchased from Aldrich (70% purity) and was recrystallized from benzene/ethanol (1:1) to afford yellow crystals (36). Thioflavin T binding assays were performed by addition of 50 μL of 100 μM Aβ solutions, which were incubated at 37° C. in the absence and presence of inhibitors, to 450 μL solution of 10 μM Thioflavin T in phosphate buffer (10 mM phosphate, 100 mM KCl). The solutions were mixed and fluorescence measurements were recorded in Biosystems model spectrofluorimeter at 25° C. using a 1 cm path length quartz cell. An excitation slit width of 4 nm and an emission slit width of 8 nm were employed. The excitation wavelength was set to 450 nm and emission monitored from 460-630 nm. The relative fluorescence at 482 nm was plotted for each sample, and was used as a measure of the amount of fibrillar aggregates in solution.

- Amount of nonfibrillar assemblies (protofibrils) formed by Aβ alone relative to that obtained in the presence of compound (Aβ 1-40 [1]; 20 hour incubation): ~30%
- Average sedimentation coefficients of two populations of oligomeric species (Aβ 1-40 [1]; Aβ 100 μM): 35 S and 56 S
- Average sedimentation coefficients of two populations of oligomeric species (Aβ 1-40 [1]; Aβ 100 μM, listed as apomorhine): 35 S and 56 S
- Average sedimentation coefficient of Aβ-apomorphine complex(s) (Aβ 1-40 [1]; Aβ 100 μM, apomorphine 100 μM, 3 days, 30,000 rpm): 50 S
- Sedimentation of Aβ 1-40 at 3,000 rpm (fibrils) (Aβ 1-40 [1]; apomorphine at equimolar ratio to Aβ 1-40): no sedimentation of Aβ 1-40 was observed
- Increase in amount of soluble protofibrils (Aβ 1-40 [1]; incubation 17-24 h at 37° C., in the presence of apomorphine): 60%
- Sedimentation coefficient after addition of apomorphine (Aβ 1-40 [1]; incubation 17-24 h at 37° C., Aβ alone 20 S): 30 S
- Molecular weight from single species fit of sedimentation equilibrium (monomeric Aβ; remaining monomeric species, monitored at 330 nm): 4,430 g/mol
- Binding to monomeric Aβ (monomeric Aβ; sedimentation equilibrium at 330 nm): bound to monomeric Aβ
- Nonfibrillar assemblies as share of species in solution (Aβ 1-40 [3]; Aβ 1-40 100 μM, apomorphine 50 μM, 3-6 days at 37° C.): 70-85%
- Protofibril assembly into fibrils when compound is added to pre-incubated Aβ (EM and sedimentation velocity) (Aβ 1-40 [3]; Aβ pre-incubated 18-20 hr at 37° C., then three to nine days with compound): exhibited similar behavior
- Thioflavin T signal after longer incubation (Aβ 1-40 [5]; longer incubation at 37° C., some long fibrils formed): did not exhibit any changes
- Thioflavin T signal with sodium metabisulphite added (Aβ 1-40 [5]; stock solutions containing 1% (v/v) sodium metabisulphite, 37° C., pH 7.4, 3 days): restoration of the ThT signal
SMILES: CN1CCc2cccc3c2C1Cc1ccc(O)c(O)c1-3 (single isomer, unassigned; (-)) [apomorphine, (−)-10,11-dihydroxyaporphine]
- Visible sedimentable aggregates (Aβ 1-40 [2]): did not show any visible sedimentable aggregates
- Species seen by electron microscopy (Aβ 1-40 [3]; Aβ 1-40 100 μM, apomorphine 50 μM): both long unbranched fibrils and short nonfibrillar assemblies were observed
- Species seen by electron microscopy (Aβ 1-40 [3]; Aβ 1-40 100 μM, apomorphine 100 μM): accumulation of predominantly soluble, nonfibrillar assemblies
- Species by sedimentation velocity and EM (Aβ 1-40 [3]; Aβ 1-40 100 μM, apomorphine 200 μM, 37° C., 2-6 days): stabilization of soluble oligomeric species
- Fibril formation at apomorphine concentrations below 50 μM (Aβ 1-40 [3]; Aβ 1-40 100 μM, apomorphine <50 μM, 3-9 days at 37° C.): significant fibrils were formed; also recorded: not effective as an inhibitor
- Inhibition of Aβ fibril formation by EM, aged or freshly prepared stock solutions (Aβ 1-40 [3]; three to four days at 37° C.): effective inhibition of Aβ fibril formation
- Congo red maximal absorbance and red-shifted maximum (Aβ 1-40 [4]): no increase in the maximal absorbance and red-shifted maximum
- Thioflavin T fluorescence at 482 nm (amount of fibrils) (Aβ 1-40 [5]; Aβ 1-40 100 μM incubated with compound, pH 7.4, 37° C., 3 days): did not exhibit this typical fluorescence; also recorded: did not affect the ThT fluorescence spectra; also recorded: signal near background

Reference: US20080096909A1, “APOMORPHINE INHIBITORS OF AMYLOID-BETA (ABETA) FIBRIL FORMATION AND THEIR USE IN AMYLOIDOSIS BASED DISEASE” (priority 2001, published 2008)
